Data on two compounds can be found in US7229985B2, “Amorphous substance of tricyclic triazolobenzazepine derivative” (Meiji Seika Kaisha, Ltd., priority 2001, dated 2007).

Converted amounts (≈) assume the structure as drawn.

A short description of series [1]: Solubility in methylene chloride. Type of series: physicochemical.
Series [2] is described as follows: Oral absorption of pulverized crystal. It counts as in vivo. Conditions: orally administered to dogs. As to the method:
In addition, an experiment in which a pulverized crystal of crystalline compound A is prepared according to the description of Japanese Patent Laid-Open No. 185013/1987 disclosing a drug, which has been rendered easily absorbable by pulverizing was carried out. The treated drug is orally administered to experimental animals such as dogs.

Series [3] can be described thus: Dissoluvability Test (1): solubility in water or 1 wt % aqueous methylcellulose solution at 37° C. It counts as physicochemical. Here is the method:
Water or a 1 wt % aqueous methylcellulose solution was provided as a test liquid, and solubility of various samples in the test liquid was examined. Each sample in an amount of about 100 mg in terms of compound A was added to 500 mL of the test liquid kept at 37° C., and the mixture was stirred with a paddle at 200 rpm. Sampling was carried out at predetermined time intervals, and the samples were filtered through a membrane filter (Sumplep LCR 13-LG, manufactured by Millipore Corporation). The concentration of compound A in each of the filtrates was analyzed by HPLC.
In Test Example 2, HPLC was carried out under the following measuring conditions.
Detector: Ultraviolet absorptiometer (measuring wavelength: 240 nm)
Column: Inertsil ODS 2 4.6×250 mm in which a stainless tube having an inner diameter of 4.6 mm and a length of 25 cm was packed with a 5-μm octadecylsilyl silica gel for liquid chromatography.
Column temp.: Around 40° C.
Mobile phase: 0.1 wt % ammonium acetate:methanol (45:55)

A short description of series [4]: Solubility in glycerin, propylene glycol, Macrogol 400 and the like. It counts as physicochemical.
Series [5] in a line: Absorption Test: oral administration, plasma compound B concentration. It counts as in vivo, beagles. As to the method: The sample produced in Comparative Example 1 or Example 1 was suspended in a 1 wt % aqueous methylcellulose solution. The suspension was administered orally to beagles (n=6) which had been subjected to fasting overnight. The difference in absorption among the samples was evaluated by comparing the area under the plasma drug concentration-time curve (AUC).
The plasma drug concentration in the collected blood was quantitatively determined according roughly to the following method.
Blood (about 0.7 mL) collected from the cephalic vein was centrifuged (4° C., about 9000×g, 10 min) in the presence of heparin to obtain plasma. Methanol (400 μL) and an internal standard substance solution (sodium salt of 7-methyl-4(5H),10-dioxo-2H-1,2,3-triazolo[4,5-c][1]benzazepine, 100 ng/mL, 100 μL) were added to the plasma (100 μL), and the mixture was stirred and centrifuged (4° C., about 9000×g, 10 min).
The supernatant was evaporated to dryness at room temperature under a nitrogen gas stream, and 150 μL of a mixed solution composed of a 10 mmol/L phosphate buffer (pH 7.0) and a methanol (8:2) was added to the residue for redissolution. The solution was then filtered by a centrifugal filter (Centricut Ultra-Mmini (KURABO INDUSTRIES LTD.), 4° C., about 9000×g, 10 min), and the filtrate was analyzed as a sample by HPLC. […]
Fluorescence detection wavelength: Ex 270 nm, Em 466 nm (GAIN=100, response=standard) […]

[6] abbreviates: test liquid 1 wt % aqueous methylcellulose solution, 37° C. (FIG. 3).
The mark [7] stands for this setting: test liquid water, 37° C., about 100 mg in 500 mL, paddle 200 rpm (FIG. 2), level reached.

Regarding `COc1cc2[nH]c(=O)c3nn(C(OC(=O)OC(C)C)C(C)C)nc3c(=O)c2cc1OC` (stereo not drawn) [Comparative Example 1, 2-(1-Isopropoxycarbonyloxy-2-methylpropyl)-7,8-dimethoxy-4(5H), 10-dioxo-2H-1,2,3-triazolo[4,5-c][1]benzazepine], the “solubility in methylene chloride” value in series [1] is on record as “about 1 % by weight”. Also, in series [2], the improvement in absorption result is on record as “not more than expected”. The concentration of dissolution entry in series [3] (setting [6]) and in series [3] (setting [7]) was “not more than 1 μg/mL” throughout. Also, the “solubility in glycerin, propylene glycol, Macrogol 400 and the like” value in series [4] was “not on such a level that can make crystalline compound A pharmaceutically usable”.
Turning to `COc1cc2[nH]c(=O)c3nn(C(OC(=O)OC(C)C)C(C)C)nc3c(=O)c2cc1OC` (stereo not drawn) [Example 1, 2-(1-isopropoxycarbonyloxy-2-methylpropyl)-7,8-dimethoxy-4(5H), 10-dioxo-2H-1,2,3-triazolo[4,5-c][1]benzazepine], the “plasma compound B concentration over time versus crystalline compound of Comparative Example 1” value in series [5] (beagles, dose one-eighth of the dose of the crystalline compound) was “much higher”. The “plasma compound B concentration versus crystalline compound of Comparative Example 1” value in series [5] (suspension in 1 wt % aqueous methylcellulose, fasted beagles (FIG. 5)) is recorded as “significantly higher”. The solubility (in general, the dissolved amount per volume that the medium holds) in series [3] (1 wt % aqueous methylcellulose solution, aqueous with cosolvent or surfactant or cyclodextrin, thermodynamic from solid, in a 1 wt % methylcellulose solution at 37° C.) fell in the range of 15 to 20 µg/mL (≈ 34.7 to 46.2 µM). In series [3] (test liquid 1 wt % aqueous methylcellulose solution, 37° C.), the “time for which concentration of dissolution was maintained” value is 4 h. Moreover, the figures for the concentration of dissolution result in series [3] (setting [6]) and in series [3] (setting [7]) were “not less than 18 μg/mL” and “about 5 μg/mL”, respectively. Also, in series [3] (test liquid water, 37° C., value to which the concentration then lowered (FIG. 2)), the “concentration of dissolution after lowering” value is “about 3 μg/mL”.
